Assay results as given in ChEMBL document CHEMBL5360655, “Design, Synthesis, and Biological Evaluation of Novel P2X7 Receptor Antagonists for the Treatment of Septic Acute Kidney Injury” (J Med Chem, 2023).
Active and inactive are the calls of the source. The rule behind the calls is not given here.

Key:
Cytochrome P450 1A2 = target: T1, Cytochrome P450 1A2 (Homo sapiens, UniProt P05177); assay: Inhibition of CYP1A2 in human liver microsomes using phenacetin as substrate upto 100 uM incubated for 10 mins in presence of NADPH by LC-MS/MS analysis; format: ADME, Microsome
T1 sequence (P05177 whole entry): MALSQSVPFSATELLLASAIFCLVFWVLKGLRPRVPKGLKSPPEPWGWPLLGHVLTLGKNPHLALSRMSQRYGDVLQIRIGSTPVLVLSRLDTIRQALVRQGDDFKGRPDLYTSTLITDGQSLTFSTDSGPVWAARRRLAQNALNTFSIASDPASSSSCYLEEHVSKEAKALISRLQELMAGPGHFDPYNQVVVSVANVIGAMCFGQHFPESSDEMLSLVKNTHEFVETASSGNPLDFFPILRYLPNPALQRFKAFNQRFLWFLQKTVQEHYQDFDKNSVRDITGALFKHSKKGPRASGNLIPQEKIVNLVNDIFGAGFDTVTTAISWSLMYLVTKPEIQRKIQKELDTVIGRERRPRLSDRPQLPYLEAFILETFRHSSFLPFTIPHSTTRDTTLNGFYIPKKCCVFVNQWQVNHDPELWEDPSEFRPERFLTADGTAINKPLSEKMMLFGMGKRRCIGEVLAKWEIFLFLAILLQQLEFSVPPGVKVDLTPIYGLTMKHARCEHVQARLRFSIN

[1] = Toxicity in C57BL/6J mouse assessed as pathological changes in heart at 20 mg/kg, ip administered twice at 0 hrs and 8 hrs and measured after 16 hrs by Hematoxylin-Eosin staining based analysis; format: organism-based; conditions: in vivo
Cytochrome P450 2D6 = Cytochrome P450 2D6 (Homo sapiens, UniProt P10635); assay: Inhibition of CYP2D6 in human liver microsomes using dextromethorphan as substrate upto 100 uM incubated for 10 mins in presence of NADPH by LC-MS/MS analysis; format: ADME, Microsome
THP-1 [2] = assay: Inhibition of ATP-induced apoptosis in human THP-1 cells at 0.5 to […] pretreated with LPS for 3 hrs followed by incubation with compound for 40 mins followed by treatment with ATP for 6 hrs by CCK8 assay; format: functional, cell-based; conditions: dose 0.5-2.5 µM, time 400.0 min
[3] = Toxicity in C57BL/6J mouse assessed as mortality at 600 mg/kg, ip measured for 14 days; format: organism-based; conditions: in vivo, 336 h, time 14 day
THP-1 [4] = assay: Inhibition of ATP-induced ROS production in human THP-1 cells at […] pretreated with LPS for 3 hrs followed by incubation with compound for 40 mins followed by treatment with ATP for 1 hr by DCFH-DA staining based fluorescence microscopic analysis; format: functional, cell-based; conditions: dose 2.5 µM, time 100.0 min
Mus musculus [5] = assay: (§1) Reno-protective activity against CLP-induced acute kidney injury C57BL/6J mouse model assessed as decrease in GSDMD-N protein expression in kidney at 20 mg/kg, ip administered twice at 30 mins prior to CLP operation and 8 hrs post-CLP operation and measured at 16 hrs post-CLP operation by western blot analysis; format: functional, organism-based; conditions: time 16.5 hrs
[6] = target: T2, P2X purinoceptor 7 (Mus musculus) (UniProt Q9Z1M0); assay: Antagonist activity at mouse P2X7 receptor expressed in HEK293 cells assessed as inhibition of ATP-induced receptor pore formation at 1 uM by propidium iodide dye uptake based fluorescence analysis; format: cell-based; conditions: filed as antagonist
T2 sequence (whole entry): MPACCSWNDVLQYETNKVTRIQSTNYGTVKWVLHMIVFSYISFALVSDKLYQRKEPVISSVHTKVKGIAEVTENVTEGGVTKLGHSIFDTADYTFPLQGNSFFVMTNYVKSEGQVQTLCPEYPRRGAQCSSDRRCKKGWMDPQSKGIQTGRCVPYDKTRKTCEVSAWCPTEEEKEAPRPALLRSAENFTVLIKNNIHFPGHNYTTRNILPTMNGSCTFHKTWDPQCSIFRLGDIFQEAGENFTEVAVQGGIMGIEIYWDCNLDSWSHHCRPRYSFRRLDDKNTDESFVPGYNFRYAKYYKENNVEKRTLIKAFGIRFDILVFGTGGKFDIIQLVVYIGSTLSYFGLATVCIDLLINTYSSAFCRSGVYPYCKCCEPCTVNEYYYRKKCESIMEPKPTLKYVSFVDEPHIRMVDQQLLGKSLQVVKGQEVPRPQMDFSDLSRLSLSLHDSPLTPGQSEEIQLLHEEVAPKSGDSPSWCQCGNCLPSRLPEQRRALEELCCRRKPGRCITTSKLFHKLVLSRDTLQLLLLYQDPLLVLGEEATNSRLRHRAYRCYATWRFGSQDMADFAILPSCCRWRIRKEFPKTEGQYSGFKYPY

[7] = target: T3, P2X purinoceptor 7 (Homo sapiens) (UniProt Q99572); assay: Antagonist activity at P2X7 receptor in human THP-1 cells assessed as inhibition of ATP-induced NLRP3 inflammasome activation at 0.1 to […] pretreated with LPS for 3 hrs followed by incubation with compound for 40 mins followed by treatment with ATP for 1 hr by western blot analysis; format: cell-based; conditions: filed as antagonist, dose 0.1-2.5 µM, time 100.0 min
T3 sequence (whole entry): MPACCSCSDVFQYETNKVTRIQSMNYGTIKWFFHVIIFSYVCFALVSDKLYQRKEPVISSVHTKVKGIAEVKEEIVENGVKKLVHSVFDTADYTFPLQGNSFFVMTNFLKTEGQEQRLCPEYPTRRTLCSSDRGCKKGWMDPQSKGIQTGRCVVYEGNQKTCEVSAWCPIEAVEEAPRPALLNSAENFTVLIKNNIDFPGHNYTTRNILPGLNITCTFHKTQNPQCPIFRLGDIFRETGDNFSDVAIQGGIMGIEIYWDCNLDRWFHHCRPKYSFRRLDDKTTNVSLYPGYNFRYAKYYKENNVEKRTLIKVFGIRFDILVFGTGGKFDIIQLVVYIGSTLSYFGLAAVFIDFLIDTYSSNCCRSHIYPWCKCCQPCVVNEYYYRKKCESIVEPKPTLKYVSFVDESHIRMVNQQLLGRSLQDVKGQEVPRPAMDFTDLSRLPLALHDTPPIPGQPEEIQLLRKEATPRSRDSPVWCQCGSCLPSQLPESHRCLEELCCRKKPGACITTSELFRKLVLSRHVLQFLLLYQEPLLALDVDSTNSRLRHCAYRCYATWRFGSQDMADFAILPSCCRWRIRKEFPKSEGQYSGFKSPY

Mus musculus [8] = assay: Reno-protective activity against LPS-induced acute kidney injury C57BL/6J mouse model assessed as decrease in BUN level at 10 mg/kg, ip administered twice at 30 mins prior to LPS challenge and 8 hrs post-LPS challenge and measured at 16 hrs post-LPS challenge; format: functional, organism-based; conditions: time 16.5 hrs
[9] = target: T3, P2X purinoceptor 7 (Homo sapiens); assay: Antagonist activity at human P2X7 receptor expressed in HEK293 cells assessed as inhibition of ATP-induced receptor pore formation at 1 uM by propidium iodide dye uptake based fluorescence analysis; format: cell-based; conditions: filed as antagonist
Cytochrome P450 2C19 = Cytochrome P450 2C19 (Homo sapiens, UniProt P33261); assay: Inhibition of CYP2C19 in human liver microsomes using S-mephenytoin as substrate upto 100 uM incubated for 10 mins in presence of NADPH by LC-MS/MS analysis; format: ADME, Microsome
Mus musculus [10] = assay: as §1, with “GSDMD mRNA” for “GSDMD-N protein”, “RT-qPCR” for “western blot”; format: functional, organism-based; conditions: time 16.5 hrs

Chain of Cytochrome P450 2C19 (P33261 whole entry): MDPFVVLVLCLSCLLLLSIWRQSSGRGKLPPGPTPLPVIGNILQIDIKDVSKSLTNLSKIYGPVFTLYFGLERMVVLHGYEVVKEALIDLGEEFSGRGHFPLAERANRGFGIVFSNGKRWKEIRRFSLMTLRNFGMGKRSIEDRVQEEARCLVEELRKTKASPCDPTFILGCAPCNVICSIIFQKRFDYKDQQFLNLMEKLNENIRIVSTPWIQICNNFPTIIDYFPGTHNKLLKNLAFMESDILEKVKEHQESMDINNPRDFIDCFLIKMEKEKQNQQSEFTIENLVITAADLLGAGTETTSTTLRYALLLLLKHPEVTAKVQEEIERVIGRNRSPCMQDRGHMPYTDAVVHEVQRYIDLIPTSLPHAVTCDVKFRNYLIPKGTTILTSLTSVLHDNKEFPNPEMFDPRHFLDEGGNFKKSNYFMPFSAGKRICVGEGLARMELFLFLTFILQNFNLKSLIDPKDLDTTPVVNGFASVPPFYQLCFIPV
Chain of Cytochrome P450 2D6 (P10635 whole entry): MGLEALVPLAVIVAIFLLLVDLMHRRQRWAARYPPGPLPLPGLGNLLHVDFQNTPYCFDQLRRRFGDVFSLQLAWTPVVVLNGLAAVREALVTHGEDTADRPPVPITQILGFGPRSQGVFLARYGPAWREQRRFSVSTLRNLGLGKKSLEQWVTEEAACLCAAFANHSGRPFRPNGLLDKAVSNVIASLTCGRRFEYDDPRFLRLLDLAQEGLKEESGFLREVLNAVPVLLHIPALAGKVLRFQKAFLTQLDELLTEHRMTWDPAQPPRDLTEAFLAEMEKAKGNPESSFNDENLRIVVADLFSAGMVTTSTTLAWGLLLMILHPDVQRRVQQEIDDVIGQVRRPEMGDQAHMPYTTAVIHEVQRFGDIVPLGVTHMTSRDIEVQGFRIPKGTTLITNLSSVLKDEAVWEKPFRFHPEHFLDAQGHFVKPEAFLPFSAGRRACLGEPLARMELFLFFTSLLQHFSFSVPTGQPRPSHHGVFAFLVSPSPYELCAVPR

CS(=O)(=O)c1ccc(-c2nc(C(=O)NCc3cn(-c4cc(Br)ccn4)nn3)cs2)cc1
inhibition (INH) (Cytochrome P450 1A2): Not Active | Activity [1]: Non-Toxic | inhibition (INH) (Cytochrome P450 2D6): Not Active | inhibition (THP-1 [2]): Active | Activity [3]: Toxic | inhibition (THP-1 [4]): Active | Activity (Mus musculus [5]): Active | inhibition [6]: 107% | inhibition [7]: Active | Activity (Mus musculus [8]): Active | inhibition [9]: 112% | inhibition (INH) (Cytochrome P450 2C19): Not Active | Activity (Mus musculus [10]): Active
